The target of this assay is T1, wild type human RORγt LBD (Homo sapiens, UniProt P51449).
T1 construct: expressed in transfected cells; host or cells: HEK293T
T1 sequence (P51449 258-518): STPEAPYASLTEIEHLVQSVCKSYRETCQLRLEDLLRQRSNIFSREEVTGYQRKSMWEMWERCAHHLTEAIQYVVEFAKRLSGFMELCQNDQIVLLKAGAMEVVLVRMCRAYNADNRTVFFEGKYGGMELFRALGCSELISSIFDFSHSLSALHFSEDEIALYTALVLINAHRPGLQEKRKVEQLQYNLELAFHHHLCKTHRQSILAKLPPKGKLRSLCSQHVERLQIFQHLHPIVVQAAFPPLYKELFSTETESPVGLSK
Put plainly: RORγt (LBD) Reporter Assay (GAL4-luciferase, HEK293T cells). Format: cell-based. Particulars: for inhibition at 6 µM: HEK-293T, read-out: RORγt (LBD) Reporter Assay, % inhibition @ 6 µM, 6 µM compound concentration; for RORγt (LBD) Reporter Assay, % inhibition @ 6 µM: 6 µM compound concentration.

Where a name gives a salt, the structure may show the parent alone. Read-outs that look alike come from different tables or passages of the source.

Consider `COc1c(Cc2ccccc2)c(C(F)(F)F)nc2ccc(C(O)(c3ccc(Cl)cc3)c3cncn3C)cc12` (racemic) [Example 101a, (3-Benzyl-4-methoxy-2-(trifluoromethyl)quinolin-6-yl)(4-chlorophenyl)(1-methyl-1H-imidazol-5-yl)methanol•TFA], for which the inhibition at 6 µM was found to be 96%.

Take `COc1nc2ccc(C(O)(c3ccc(C)nc3C)c3cnnn3C)cc2c(Cl)c1Cc1ccc(C(F)(F)F)nc1` (single isomer, unassigned) [Example 40b, (4-Chloro-2-methoxy-3-((6-(trifluoromethyl)pyridin-3-yl)methyl)quinolin-6-yl)(2,6-dimethylpyridin-3-yl)(1-methyl-1H-1,2,3-triazol-5-yl)methanol]: the inhibition at 6 µM amounted to 88%.

For `COc1nc2ccc(C(O)(c3ccc(C)nc3C)c3cnnn3C)cc2c(Cl)c1Cc1ccc(C(F)(F)F)nc1` (single isomer, unassigned) [Example 40c, (4-Chloro-2-methoxy-3-((6-(trifluoromethyl)pyridin-3-yl)methyl)quinolin-6-yl)(2,6-dimethylpyridin-3-yl)(1-methyl-1H-1,2,3-triazol-5-yl)methanol], the “RORγt (LBD) Reporter Assay, % inhibition @ 6 µM” value (from here on “RORγt … % inhibition @ 6 µM”) is listed as 94%. In the case of `COc1nc2ccc(C(O)(c3ccccn3)c3cncn3C)cc2c(Cl)c1Cc1ccc(-n2cccn2)cc1` (single isomer, unassigned) [Example 64b, (3-(4-(1H-Pyrazol-1-yl)benzyl)-4-chloro-2-methoxyquinolin-6-yl)(1-methyl-1H-imidazol-5-yl)(pyridin-2-yl)methanol], the inhibition at 6 µM came to 103%.

Regarding `COc1nc2ccc(C(O)(c3ccccn3)c3cncn3C)cc2c(Cl)c1Cc1ccc(-n2cccn2)cc1` (single isomer, unassigned) [Example 64c, (3-(4-(1H-Pyrazol-1-yl)benzyl)-4-chloro-2-methoxyquinolin-6-yl)(1-methyl-1H-imidazol-5-yl)(pyridin-2-yl)methanol], the “RORγt … % inhibition @ 6 µM” value is given as 107%. Regarding `COc1nc2ccc(C(O)(c3cnnn3C)c3cnc(C)n3C)cc2c(Cl)c1Cc1ccc(F)cc1` (single isomer, unassigned) [Example 65b], the inhibition at 6 µM turned out to be 74%. Take `COc1nc2ccc(C(O)(c3cnnn3C)c3cnc(C)n3C)cc2c(Cl)c1Cc1ccc(F)cc1` (single isomer, unassigned) [Example 65c]: the “RORγt … % inhibition @ 6 µM” value came out at 81%. `COc1c(Cc2ccccc2)c(C(F)(F)F)nc2ccc(C(O)(c3ccc(Cl)cc3)c3cncn3C)cc12` (single isomer, unassigned) [Example 101b]: the inhibition at 6 µM came out at 62%.

In the case of `COc1c(Cc2ccccc2)c(C(F)(F)F)nc2ccc(C(O)(c3ccc(Cl)cc3)c3cncn3C)cc12` (single isomer, unassigned) [Example 101c], the inhibition at 6 µM was 89%. `Cn1cncc1C(O)(c1ccc(C(F)(F)F)nc1)c1ccc2nc(-c3nccn3C)c(Cc3ccccc3)c(Cl)c2c1` (single isomer, unassigned) [Example 113c, (3-Benzyl-4-chloro-2-(1-methyl-1H-imidazol-2-yl)quinolin-6-yl)(1-methyl-1H-imidazol-5-yl)(6-(trifluoromethyl)pyridin-3-yl)methanol•TFA]: the inhibition at 6 µM (HEK293T cells) was 90%.

Consider `Cn1cncc1C(O)(c1ccc(C(F)(F)F)nc1)c1ccc2nc(-n3cccn3)c(Cc3ccccc3)c(C#N)c2c1` (single isomer, unassigned) [Example 114b, 3-Benzyl-6-(hydroxy(1-methyl-1H-imidazol-5-yl)(6-(trifluoromethyl)pyridin-3-yl)methyl)-2-(1H-pyrazol-1-yl)quinoline-4-carbonitrile•TFA], for which the inhibition at 6 µM (HEK293T cells) was found to be 86%. Turning to `Cn1cncc1C(O)(c1ccc(C(F)(F)F)nc1)c1ccc2nc(-n3cccn3)c(Cc3ccccc3)c(C#N)c2c1` (single isomer, unassigned) [Example 114c, 3-Benzyl-6-(hydroxy(1-methyl-1H-imidazol-5-yl)(6-(trifluoromethyl)pyridin-3-yl)methyl)-2-(1H-pyrazol-1-yl)quinoline-4-carbonitrile•TFA], the “RORγt … % inhibition @ 6 µM” value (HEK293T cells) is reported as 71%. With `CC(=O)N1CCC(C(O)(c2ccc3nc(C(F)(F)F)c(Cc4ccccc4)c(Cl)c3c2)c2cncn2C)CC1` (single isomer, unassigned) [Example 115b, 1-(4-((3-Benzyl-4-chloro-2-(trifluoromethyl)quinolin-6-yl)(hydroxy)(1-methyl-1H-imidazol-5-yl)methyl)piperidin-1-yl)ethanone•TFA], the inhibition at 6 µM (HEK293T cells) was found to be 67%. For `CC(=O)N1CCC(C(O)(c2ccc3nc(C(F)(F)F)c(Cc4ccccc4)c(Cl)c3c2)c2cncn2C)CC1` (single isomer, unassigned) [Example 115c, 1-(4-((3-Benzyl-4-chloro-2-(trifluoromethyl)quinolin-6-yl)(hydroxy)(1-methyl-1H-imidazol-5-yl)methyl)piperidin-1-yl)ethanone•TFA], the “RORγt … % inhibition @ 6 µM” value (HEK293T cells) came to 70%.

Consider `COc1nc2ccc(C(N)(c3ccc(C(F)(F)F)nc3)c3cncn3C)cc2c(Cl)c1Cc1ccccc1` (single isomer, unassigned) [Example 120b, (3-Benzyl-4-chloro-2-methoxyquinolin-6-yl)(1-methyl-1H-imidazol-5-yl)(6-(trifluoromethyl)pyridin-3-yl)methanamine•TFA], for which the “RORγt … % inhibition @ 6 µM” value (HEK293T cells) turned out to be 27%. In the case of `COc1nc2ccc(C(N)(c3ccc(C(F)(F)F)nc3)c3cncn3C)cc2c(Cl)c1Cc1ccccc1` (single isomer, unassigned) [Example 120c, (3-Benzyl-4-chloro-2-methoxyquinolin-6-yl)(1-methyl-1H-imidazol-5-yl)(6-(trifluoromethyl)pyridin-3-yl)methanamine•TFA], for the setting “HEK293T cells”, the “RORγt … % inhibition @ 6 µM” value is 66%.

As for `CNC(c1ccc2nc(OC)c(Cc3ccc(C(F)(F)F)cc3)c(Cl)c2c1)(c1ccc(C)nc1C)c1cnnn1C` (single isomer, unassigned) [Example 121b, 1-(4-Chloro-2-methoxy-3-(4-(trifluoromethyl)benzyl)quinolin-6-yl)-1-(2,6-dimethylpyridin-3-yl)-N-methyl-1-(1-methyl-1H-1,2,3-triazol-5-yl)methanamine•TFA], the inhibition at 6 µM (HEK293T cells) came out at 98%.

In the case of `CNC(c1ccc2nc(OC)c(Cc3ccc(C(F)(F)F)cc3)c(Cl)c2c1)(c1ccc(C)nc1C)c1cnnn1C` (single isomer, unassigned) [Example 121c, 1-(4-Chloro-2-methoxy-3-(4-(trifluoromethyl)benzyl)quinolin-6-yl)-1-(2,6-dimethylpyridin-3-yl)-N-methyl-1-(1-methyl-1H-1,2,3-triazol-5-yl)methanamine•TFA], the “RORγt … % inhibition @ 6 µM” value (HEK293T cells) was determined as 101%. As for `COc1nc2ccc(C(c3ccc(C)nc3C)(c3cnnn3C)N(C)C)cc2c(Cl)c1Cc1ccc(C(F)(F)F)cc1` (single isomer, unassigned) [Example 122b, 1-(4-Chloro-2-methoxy-3-(4-(trifluoromethyl)benzyl)quinolin-6-yl)-1-(2,6-dimethylpyridin-3-yl)-N,N-dimethyl-1-(1-methyl-1H-1,2,3-triazol-5-yl)methanamine•TFA], the inhibition at 6 µM (HEK293T cells) stood at 98%. Turning to `COc1nc2ccc(C(c3ccc(C)nc3C)(c3cnnn3C)N(C)C)cc2c(Cl)c1Cc1ccc(C(F)(F)F)cc1` (single isomer, unassigned) [Example 122c, 1-(4-Chloro-2-methoxy-3-(4-(trifluoromethyl)benzyl)quinolin-6-yl)-1-(2,6-dimethylpyridin-3-yl)-N,N-dimethyl-1-(1-methyl-1H-1,2,3-triazol-5-yl)methanamine•TFA], the “RORγt … % inhibition @ 6 µM” value (HEK293T cells) was 99%. Take `CCN(CC)c1nc2ccc(C(O)(c3ccc(Cl)cc3)c3cncn3C)cc2c(C#N)c1Cc1ccc(-n2cccn2)cc1` (single isomer, unassigned) [Example 154b, 3-(4-(1H-pyrazol-1-yl)benzyl)-6-((4-chlorophenyl)(hydroxy)(1-methyl-1H-imidazol-5-yl)methyl)-2-(diethylamino)quinoline4-carbonitrile]: inhibition (HEK293T cells) was half-maximal at 140 nM (IC50). In other words, the sub-micromolar range. Take `COc1nc2ccc(C(O)(c3oc(C)nc3C)c3cnnn3C)cc2c(Cl)c1Cc1ccc(C(F)(F)F)cc1` (single isomer, unassigned) [Example 156b, (4-chloro-2-methoxy-3-(4-(trifluoromethyl)benzyl)quinolin-6-yl)(2,4-dimethylozazol-5-yl)(1-methyl-1H-1,2,3-triazol-5-yl)methanol]: the inhibition at 6 µM (HEK293T cells) worked out at 98%.

`COc1nc2ccc(C(O)(c3oc(C)nc3C)c3cnnn3C)cc2c(Cl)c1Cc1ccc(C(F)(F)F)cc1` (single isomer, unassigned) [Example 156c, (4-chloro-2-methoxy-3-(4-(trifluoromethyl)benzyl)quinolin-6-yl)(2,4-dimethylozazol-5-yl)(1-methyl-1H-1,2,3-triazol-5-yl)methanol]: for the setting “HEK293T cells”, the “RORγt … % inhibition @ 6 µM” value is listed as 99%. In the case of `COc1nc2ccc(C(O)(c3ccc(C)nc3C)c3cnnn3C)cc2c(Cl)c1Cc1ccc(C(F)(F)F)nc1` (stereo not drawn) [Example 40a, (4-Chloro-2-methoxy-3-((6-(trifluoromethyl)pyridin-3-yl)methyl)quinolin-6-yl)(2,6-dimethylpyridin-3-yl)(1-methyl-1H-1,2,3-triazol-5-yl)methanol], the inhibition at 6 µM worked out at 98%.

The term IC50 denotes the concentration that gives 50% inhibition. A lower IC50 goes with greater potency.

The record behind these values is patent EP3057951B1, “METHYLENE LINKED QUINOLINYL MODULATORS OF ROR-GAMMA-T” (Janssen Pharmaceutica NV, priority 2013, dated 2015).
